Source: patent US8062859B2, “Method for screening anticancer substances, set or kit for implementing said method” (Centre National de la Recherche Scientifique (CNRS), priority 2005, dated 2011)

Experiments:
Type in all cases: cell-based
[1] = test system: SW620 metastatic cell line; assay: Spreading ability of the cells (flat versus round phenotype)
Method: FIG. 2 illustrates the effect of the treatment of metastatic cells of the SW620 cell line by the inhibitor Y-27632 on the spreading ability of the cells (FIG. 2A) and on the formation of E-cadherin type adhesion junctions (FIG. 2B). In FIGS. 2 A and 2 B: on the left: control cells without inhibitor; on the right: cells incubated with Y-27632. On the x-axis: the percentage of flat cells (FIG. 2A) or the percentage of cells forming E-cadherin type intercellular junctions (FIG. 2B). 2—Place the cells in 0% Serum for 18 to 24 hours then treat them or not with Y27 10 μM+PDGF 5 ng/ml for 36 to 48 h.

[2] = test system: SW620 metastatic cell line; assay: Invasion test (Matrigel, FluoroBlock inserts)
Method: 2. Invasion Test 1—On D-2, thaw the Matrigel at 4° C. all night 2—On D-1 measure the Matrigel into insert chambers: Put all the necessary material on ice (Matrigel, culture medium, tips, eppendorfs, etc. . . . ). Put the FluoroBlock inserts (FALCON, ref: 351152) in the 24-well plates (FALCON, ref: 353504). Dilute the Matrigel to 2 mg/ml in cold serumless medium (if the cells are to be subjected to a treatment X, include the product in the Matrigel, e.g.: Y 27632) Aliquot 100 μl of 2 mg/ml Matrigel per insert avoiding creating bubbles. Leave O/N at 37° C. in a humid atmosphere (in an incubator) 3—On D day, plate the cells on the Matrigel: First put 700 μl of 10% serum medium in a 24-well plate and transfer the inserts to this plate. Trypsinate the cells (previously treated or not . . . ) and take them up in 2% serum medium. Plate 50 000 cells per insert in 200 μl of 2% serum medium on the Matrigel (optionally put Y27632 into the plated cells). 4—The migration time varies depending on the cell type but generally allowing them to migrate for 8 hours fixing a point every 2 hours seems suitable. To fix them, transfer the inserts to a 24-well plate containing 1 ml of formalin (3.7% formaldehyde in PBS), suck up the culture medium inside the chambers and also add formalin (very important, prevents the cells from continuing to migrate in the Matrigel). […] Read the OD at 490 nm.

[3] = test system: SW620 metastatic cell line; assay: Formation of E-cadherin type intercellular junctions (immunofluorescent labelling of E-cadherin)
Method: (§1) 1. Protocol for Immunofluorescent Labelling of e-Cadherin 1—The cells are plated in 6-well plates, each well containing 3 glass coverslips 10 mm in diameter. 2—Place the cells in 0% Serum for 18 to 24 hours then treat them or not with Y27 10 μM+PDGF 5 ng/ml for 36 to 48 h. 3—Fix the cells for 10 minutes with formalin (3.7% formaldehyde in PBS). 4—Saturation, 10 minutes PBS-BSA 5—Incubation of the primary antibody, diluted to 1:500 in PBS-BSA, 2 hours at 37° C. (Mouse anti E-cadherin, ZYMED, ref: 13-1700) 6—2 rapid washes in PBS-0.1% Tween 7—Incubation of the secondary antibody (Alexa Fluor® 488 F(ab′)2 fragment of goat anti mouse IgG, Molecular Probes ref: A-11017), diluted to 1:2000 in PBS-BSA, 30 minutes at 37° C. 8—2 rapid washes in PBS-0.1% Tween 9—Mounting in Mowiol medium between the slide and the coverslip.

[4] = test system: SKCo-1 metastatic cell line; assay: Localisation of E-cadherin at intercellular junctions (immunofluorescent labelling); conditions: SKCo-1, Y-27632 10 μM for 48 hours, FIG. 1
Method: as §1

[5] = test system: CoLo205 metastatic cell line; assay: as above; conditions: CoLo205, Y-27632 10 μM for 48 hours, FIG. 1
Method: as §1

C[C@@H](N)[C@H]1CC[C@H](C(=O)Nc2ccncc2)CC1 [Y-27632]
percentage of flat cells ([1]; SW620 cells after treatment with Y-27632, FIG. 2A (control 30%)): 90% | percentage of cells retaining a round phenotype ([1]; SW620 cells after treatment with Y-27632, FIG. 2A (control 70%)): 10% | spreading ability of the cells (in words) ([1]; SW620 cells, FIG. 2A): enhances the spreading ability | level of invasion, compared with CoN normal colon cells (in words) ([2]; SW620 cells after treatment with Y-27632, FIG. 3B): very low level of invasion, comparable to that of CoN normal colon cells | invasive capacity (in words) ([2]; SW620 cells treated with Y-27632, FIG. 3B): drastically reduce their invasive capacity | location of E-cadherin at the junctions (in words) ([3]; SW620, Y-27632 10 μM for 48 hours, FIG. 1): causes correct relocation of E-cadherin at the junctions | percentage of cells capable of forming E-cadherin type junctions ([3]; SW620 cells after treatment with Y-27632, FIG. 2B (control 22%)): 52% | formation of E-cadherin dependent junctions (in words) ([3]; SW620 cells, FIG. 1B and FIG. 2B): enhances | location of E-cadherin at the junctions (in words) [4]: causes correct relocation of E-cadherin at the junctions | location of E-cadherin at the junctions (in words) [5]: causes correct relocation of E-cadherin at the junctions
